Measurements: patent publication US4562275A, “Antitumor platinum complexes” (priority 1984, dated 1985)
Values joined by “and” are separate entries in the source; they are usually repeats but may differ in a detail not shown here. Equal values may be shown once.

Key:
BDF1 mice [1] = experiment: Nephrotoxicity: effect on blood urea nitrogen (BUN) in BDF1 mice; settings: for BUN↑, Mouse: effect relative to cisplatin
Experimental: The other compounds were in such short supply that they were tested for effects on BUN values using the optimum dose (O.D.) from the L1210 test for dose selection.
The toxicity studies were done in male BDF1 mice (25-29 gm) and castrated male Fitch ferrets (1-1.5 kg).
The complexes that were active against L1210 were evaluated for nephrotoxicity by determining their effects on blood urea nitrogen (BUN) levels in mice. Groups of 40-50 mice/experiment were bled from the retro-orbital plexus and individual BUN values determined by a modified urease method using a Centrifichem System 400. The test complex, or saline for controls, was given at several dose levels (5-10 mice/dose) in single ip injections. The highest dose of the complex usually corresponded to its LD50 value or 1.5 times its optimal single dose in the L1210 experiment. At least two lower doses were included to evaluate dose-related effects. The BUN values were measured 4 and 7 days after dosing. BUN values ≥30 mg% were considered indicative of drug-induced nephrotoxicity.

[2] = tested on: L1210/CDDP (cisplatin resistant line of L1210 leukemia); experiment: Antitumor activity vs cisplatin-resistant L1210 leukemia (L1210/CDDP) in mice; format: in vivo, mouse
Text: Results of antitumor testing against the transplantable mouse tumors L1210 leukemia, cisplatin-resistant L1210 leukemia, B16 melanoma, Madison 109 lung carcinoma and colon 26 carcinoma are shown below in Tables 1 and 2. […]
(§1) The methods used to evaluate the platinum complexes for antitumor activity and toxicity in animals are summarized below. These methods have been published elsewhere in more detail (Rose, et al. Cancer Treat. Rep. 66: 135, 1982; Florczyk, et al, Cancer Treat. Rep. 66: 187, 1982).
(§2) The parent line of L1210 leukemia (L1210) was maintained in DBA/2 mice by ip transplantation of 10^5 cells at weekly intervals. […] B16 malenoma (B16) was maintained by sc transplant in C57BL/6 mice every two weeks. Madison 109 lung carcinoma (M109) and colon 26 carcinoma (C26) were maintained by sc transplant in BALB/c mice every two weeks.
(§3) The level and route of tumor inoculum, host, group size, and drug treatment schedule and route for each tumor type are summarized below in Table 6. Each complex was evaluated initially against L1210 at 4 dose levels per schedule selected on the basis of lethality data provided by the Wadley Institute. In subsequent experiments with the other tumors the complexes were evaluated at a minimum of 3 dose levels selected on the basis of maximum tolerated levels in the L1210 experiments. Cisplatin-treated groups and a saline-treated (or untreated) tumor control group were included in each experiment.
(§4) The L1210 experiments were terminated on Day 30 whereas the B16, C26 and M109 experiments were terminated on Day 60 (some C26 experiments were terminated on Day 75). Mice alive at the termination day were autopsied and considered cured if no tumor was visible. […] A complex was considered active if it produced a % T/C value ≥125.

BDF1 mice [3] = experiment: Deaths (D.14) in the BUN test in BDF1 mice; format: in vivo, mouse
B16 melanoma [4] = experiment: Antitumor activity vs ip B16 melanoma in mice; format: in vivo, mouse; design: O.D.: unit not given here; settings: for O.D.: ip B16 (3×; 9×); for Max. % T/C: ip B16 (3×; 9×): q4d × 3 or qd 1-9, ip, dying mice only; for Ratio of Max. % T/C Complex/cDDP: ip B16, relative to concomitant cisplatin
Text: as §1, §2
The level and route of tumor inoculum, host, group size, and drug treatment schedule and route for each tumor type are summarized below in Table 6. Each complex was evaluated initially against L1210 at 4 dose levels per schedule selected on the basis of lethality data provided by the Wadley Institute.
as §4

B16 melanoma [5] = experiment: Antitumor activity vs B16 melanoma, sc tumor implant with iv drug dosing; format: in vivo, mouse
Text: ^b Sc tumor implant with iv drug dosing.
as §2, §3, §4

C26 carcinoma = experiment: Antitumor activity vs ip C26 (colon 26) carcinoma in mice; format: in vivo, mouse; design: O.D.: unit not given here; settings: for O.D.: ip C26 (2×; 4×); for Max. % T/C: ip C26 (2×; 4×): q3d × 2 or qd 1-4, ip, dying mice only
Text: (§5) Results of antitumor testing against the transplantable mouse tumors L1210 leukemia, cisplatin-resistant L1210 leukemia, B16 melanoma, Madison 109 lung carcinoma and colon 26 carcinoma are shown below in Tables 1 and 2.
as §1, §2, §3, §4
8 q3d^b × 2 or qd 1-4, ip

M109 carcinoma = experiment: Antitumor activity vs ip M109 (Madison 109 lung) carcinoma in mice; format: in vivo, mouse; design: O.D.: unit not given here; settings: for O.D.: ip M109 (2×; 4×); for Max. % T/C: ip M109 (2×; 4×): q3d × 2 or qd 1-4, ip, dying mice only
Text: as §5, §1, §2, §3, §4
8 q3d^a × 2 or qd 1-4, ip

L1210 leukemia = experiment: Antitumor activity vs transplantable L1210 leukemia (ip) in mice; format: in vivo, mouse; settings: for Max % T/C: dying mice only; for OD (optimum dose): optimum dose from the L1210 test
Text: The antitumor activities of the complexes provided by the present invention have been determined against L-1210 leukemia in the mouse and, for certain of the complexes, against other mouse tumor systems.
as §5
In Table 1 are shown the maximum % T/C values obtained for each platinum compound versus L1210 leukemia using both single and qd 1→5 dosing.
as §1, §2, §3, §4

[6] = Solubility stated in the preparation examples
BDF1 mice [7] = experiment: Single-dose ip LD50 in BDF1 mice; format: in vivo, mouse; settings: 30 days observation
Experimental: Single-dose ip LD50 values were determined in BDF1 mice for the indicated complexes.

Solubility (Table 3) = settings: medium not given
[8] = L1210, Day 1, in intralipid plus ethanol
[9] = L1210, single dose Day 1, ip, (a), (b) determinations
[10] = L1210, single dose Day 1, ip, dose giving the Max % T/C, same order

| Compound | BUN↑, Mouse (BDF1 mice [1]) | O.D. (B16 melanoma [4]) | Max. % T/C (B16 melanoma [4]) [%] | O.D. (C26 carcinoma) | Max. % T/C (C26 carcinoma) [%] | O.D. (M109 carcinoma) | Max. % T/C (M109 carcinoma) | O.D. (optimal dose) (L1210 leukemia; L1210, QD 1 → 5, ip) [mg/kg/inj] | Max % T/C (L1210 leukemia; L1210, QD 1 → 5, ip) [%] | Max % T/C (L1210 leukemia; [9]) | O.D. (optimal dose) (L1210 leukemia; [10]) | OD (optimum dose) (L1210 leukemia) [mg/kg/ip] | Solubility in water [6] | LD50 (BDF1 mice [7]) [mg/kg/ip] | Ratio of Max. % T/C Complex/cDDP (B16 melanoma [4]) | Solubility (Solubility (Table 3)) [µg/mL] | further results |
| --- | --- | --- | --- | --- | --- | --- | --- | --- | --- | --- | --- | --- | --- | --- | --- | --- | --- |
| N[C@@H]1CCCC[C@H]1N.O=C([O-])C(F)(F)C(F)(F)C(F)(F)F.O=C([O-])C(F)(F)C(F)(F)C(F)(F)F.[Pt+2] (relative stereo) [Example 3, bis-heptafluorobutyrato trans(-)-1,2-diaminocyclohexane platinum(II)] | 0 | 1 | 182 | 16 | 119 | 12 and 8 | 118% and 103% | 3 | 186 | 157% | 48 mg/kg/inj | 24 |  |  |  |  | Incidence of BUN > 30 mg % (BDF1 mice [1]; 24 mg/kg ip): 0/3; Incidence of BUN > 30 mg % (BDF1 mice [1]; 36 mg/kg ip): 0/2; O.D. (optimal dose) ([2]; Day 1, in intralipid plus ethanol): 12 mg/kg/inj; Max % T/C ([2]; Day 1, in intralipid plus ethanol, dying mice only): 195%; Deaths D.14 (BDF1 mice [3]; 24 mg/kg ip): 2/5; Deaths D.14 (BDF1 mice [3]; 36 mg/kg ip): 3/5; O.D. (B16 melanoma [5]): 4; Max. % T/C (B16 melanoma [5]; dying mice only): 164%; O.D. (optimal dose) (L1210 leukemia; [8]): 24 mg/kg/inj and 18 mg/kg/inj; Max % T/C (L1210 leukemia; [8]): 214% and 200%; Cures/total (L1210 leukemia; L1210, QD 1 → 5, ip): 2/6 |
| NCC1(N)CCCCCCC1.O=C([O-])CP(=O)([O-])[O-].[H+].[Pt+2] [Example 15, phosphonoacetato 1-aminomethylcyclooctylamine platinum(II)] | < | 3 | 147 |  |  |  |  | 10 | 193 | 236% | 80 mg/kg/inj | 80 | very water-soluble | 137 | .77 | 7000 | Incidence of BUN > 30 mg % (BDF1 mice [1]; 77 mg/kg ip): 0/10; Incidence of BUN > 30 mg % (BDF1 mice [1]; 103 mg/kg ip): 2/10; Incidence of BUN > 30 mg % (BDF1 mice [1]; 137 mg/kg ip): 7/10; Deaths D.14 (BDF1 mice [3]; 77 mg/kg ip): 0/10; Deaths D.14 (BDF1 mice [3]; 103 mg/kg ip): 3/10; Deaths D.14 (BDF1 mice [3]; 137 mg/kg ip): 9/10 |
| hydroxymethylphosphonato trans(-)-1,2-diaminocyclohexane platinum(II) [Example 12] | 0 | 4 | 229 | 24 | 125 | 18 | 135% | 3 | 293 | 221% and 275% | 24 mg/kg/inj and 21 mg/kg/inj | 24 | soluble | 79 | 1.08 | 3000 | Incidence of BUN > 30 mg % (BDF1 mice [1]; 44 mg/kg ip): 1/6; Incidence of BUN > 30 mg % (BDF1 mice [1]; 59 mg/kg ip): 0/4; Cures/total ([2]; Day 1): 2/6; O.D. (optimal dose) ([2]; Day 1): 14 mg/kg/inj; Max % T/C ([2]; Day 1, dying mice only): 340%; Deaths D.14 (BDF1 mice [3]; 44 mg/kg ip): 6/10; Deaths D.14 (BDF1 mice [3]; 59 mg/kg ip): 9/10; Deaths D.14 (BDF1 mice [3]; 79 mg/kg ip): 10/10; Solubility in methanol ([6]; methanol): soluble; Ratio of Max. % T/C Complex/cDDP (C26 carcinoma; ip C26, relative to concomitant cisplatin): .87; Ratio of Max. % T/C Complex/cDDP (M109 carcinoma; ip M109, relative to concomitant cisplatin): .95 |
